Source: publication PMC12670405, “Second-Generation AURKA-Targeting PROTACs: Structural Optimization toward in Vivo Degradation in Neuroblastoma” (Journal of Medicinal Chemistry, 2025)
Values joined by “and” are separate entries in the source; they are usually repeats but may differ in a detail not shown here. Identical values can stand only once. Like-named read-outs stand apart in the source and are kept apart here.

What was measured:
[1] = Metabolic stability in mouse hepatocytes (MH); assay type: in vitro ADME, CD-1 mouse; conditions: CD-1
Method: Plasma and metabolic stability tests were performed by Eurofins Discovery. For the plasma stability assay, test compounds were incubated in CD-1 mouse plasma for 0, 0.5, 1, 1.5, and 2 h at 37 °C at a concentration of 1 μM. For the metabolic stability assay, test compounds were incubated at 37 °C in either (1) CD-1 mouse liver microsomes (MLM) (0.1 mg/mL) at a concentration of 0.1 μM for 0, 15, 30, 45, and 60 min or (2) CD-1 mouse hepatocytes (MH) (0.7 million viable cells/mL) at a concentration of 1 μM for 0, 0.5, 1, 1.5, and 2 h. At the respective time points, acetonitrile was added to the incubation mixture followed by centrifugation. Samples were analyzed by HPLC-MS/MS and peak areas were recorded for each analyte. Compound stability, expressed as the percentage of parent compound remaining, was calculated by comparing the peak area of the compound at each time point relative to that of the 0h time point. Percentage compound remaining is plotted as a function of time as a logarithmic curve. Half-life (t 1/2) is estimated from the slope of the initial linear range of the curve, assuming first-order kinetics. […] Both plasma and metabolic assay experiments were performed once with 2 replicate samples each.

AURKA = biological target: T1, AURKA (Homo sapiens, UniProt O14965); assay: AURKA degradation, Simple Western; assay type: cell-based; parameters: Representative Western blot showing levels of endogenous proteins MDR1, MYCN, AURKA, and CRBN in untreated cell lines; endogenous in cells; host or cells: NGP, IMR-32, SJNB-8, SK-N-BE(2)-C, SK-N-SH, SK-N-AS, SJNB-1, RPE, HEK293T; conditions: for pDC50: AURKA degradation; for time to robust AURKA depletion: IMR-32, 500 nM; for AURKA degradation potency upon cotreatment with tariquidar (in words): 100 nM, 1 μM tariquidar; for AURKA Degradation 24h @100nM / AURKA Degradation 24h @1000nM / AURKA degradation potency upon cotreatment with tariquidar (in words): 24h;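 on AURKA Degradation 24h @1000nM: measured in NGP neuroblastoma cells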;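 on AURKA Degradation 24h @100nM: measured in NGP neuroblastoma cells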
T1 sequence (O14965 1-403): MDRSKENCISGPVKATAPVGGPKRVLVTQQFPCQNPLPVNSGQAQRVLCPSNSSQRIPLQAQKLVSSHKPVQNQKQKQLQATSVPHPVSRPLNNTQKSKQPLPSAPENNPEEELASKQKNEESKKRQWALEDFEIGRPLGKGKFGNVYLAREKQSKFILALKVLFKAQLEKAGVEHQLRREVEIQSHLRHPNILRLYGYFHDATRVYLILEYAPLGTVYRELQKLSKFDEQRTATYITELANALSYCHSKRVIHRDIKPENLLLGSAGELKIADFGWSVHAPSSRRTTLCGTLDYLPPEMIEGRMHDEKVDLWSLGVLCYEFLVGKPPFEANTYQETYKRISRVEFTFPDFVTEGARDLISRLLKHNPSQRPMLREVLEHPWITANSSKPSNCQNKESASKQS
How it was run: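 Cells treated with compound in medium; lysed in RIPA and analysed by Simple Western (0.8 μg/μL lysate, 0.2 μg/μL for MYCN). Peak areas were normalized to vinculin, giving fold change versus DMSO (mean of 3 experiments); DC50 interpolated from four-parameter dose–response curves.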

[2] = NGP, 24 h treatment, read-out: AURKA DC50
[3] = SK-N-BE(2)-C, read-out: AURKA DC50 24h

Row | SMILES | hepatocyte CLint at 1 μM [1] | AURKA Degradation 24h @100nM (AURKA) | AURKA Degradation 24h @1000nM (AURKA) | pDC50 (AURKA) | Dmax (AURKA; NGP, 24 h treatment) | DC50 (AURKA; [2]) | DC50 (AURKA; read-out: AURKA DC50) | AURKA degradation activity (in words) (AURKA; NGP, 24 h treatment) | AURKA DC50 (AURKA; NGP, 24 h treatment) | DC50 (AURKA; SJNB-8, read-out: AURKA DC50 24h) | time to robust AURKA depletion (AURKA) | AURKA degradation potency upon cotreatment with tariquidar (in words) (AURKA; SK-N-BE(2)-C) | DC50 (AURKA; [3]) | DC50 (AURKA; HEK293T, read-out: AURKA DC50 24h) | DC50 (AURKA; RPE, read-out: AURKA DC50 24h) | DC50 (AURKA; SJNB-1, read-out: AURKA DC50 24h) | DC50 (AURKA; SK-N-AS, read-out: AURKA DC50 24h) | DC50 (AURKA; SK-N-SH, read-out: AURKA DC50 24h)
1 | O=C1CCC(Nc2ccc(N3CCN(C4CN(C(=O)[C@]5(Cc6cccc(Nc7nccs7)n6)CC[C@@H](Oc6cccc(Cl)c6F)CC5)C4)CC3)c(F)c2)C(=O)N1 (stereo partly drawn) [PROTAC 18] | < 4.1 µL/min/1e6 cells | 88 | 92 | 8,2 | 92% | 6 nM | 6.4 nM | – | – | – | – | – | – | – | – | – | – | –
2 | O=C1CCN(c2ccc(N3CCN(CC4CN(C(=O)[C@]5(Cc6cccc(Nc7nccs7)n6)CC[C@@H](Oc6cccc(Cl)c6F)CC5)C4)CC3)nc2)C(=O)N1 [PROTAC 23] | < 4.1 µL/min/1e6 cells | 88 | 88 | 8,4 | 90% | – | 4 nM | restored degradation activity | – | – | – | – | – | – | – | – | – | –
3 | O=C1CCN(c2ccc(N3CCN(CC4CCN(C(=O)[C@]5(Cc6cccc(Nc7nccs7)n6)CC[C@@H](Oc6cccc(Cl)c6F)CC5)CC4)CC3)nc2)C(=O)N1 [PROTAC 24] | < 4.1 µL/min/1e6 cells | 88 | 93 | 8,23 | 94% | – | 5.8 nM | restored degradation activity | – | – | – | – | – | – | – | – | – | –
4 | Cc1cc(Nc2ccc(F)c(CC3(C(=O)N4CC(N5CCN(c6ccc(NC7CCC(=O)NC7=O)cc6F)CC5)C4)CCN(Cc4cccc(Cl)c4F)CC3)n2)n[nH]1 (stereo not drawn) [PROTAC 29] | < 4.1 µL/min/1e6 cells | 78 | 84 | 8,11 | 87% | – | 7.8 nM | – | single-digit nanomolar range | – | – | – | – | – | – | – | – | –
5 | Cc1cc(Nc2ccc(F)c(CC3(C(=O)N4CCC(F)(CN5CCN(c6ccc(N7CCC(=O)NC7=O)cn6)CC5)CC4)CCN(Cc4cccc(Cl)c4F)CC3)n2)n[nH]1 [SK5527] | 4.4 µL/min/1e6 cells | 88 | 93 | 8,68 | 89% | < 25 nM | 2.1 nM | – | single-digit nanomolar range | – | ≤ 1 h | significantly enhanced | 73 nM | 17 nM | 15 nM | 56 nM | 30 nM | 23 nM

More lines, main results first:

Row | hepatocyte CLint at 1 μM [1] | AURKA Degradation 24h @100nM (AURKA) | AURKA Degradation 24h @1000nM (AURKA) | pDC50 (AURKA) | Dmax (AURKA; NGP, 24 h treatment) | DC50 (AURKA; [2]) | DC50 (AURKA; read-out: AURKA DC50) | AURKA degradation activity (in words) (AURKA; NGP, 24 h treatment) | AURKA DC50 (AURKA; NGP, 24 h treatment) | DC50 (AURKA; SJNB-8, read-out: AURKA DC50 24h) | SMILES | time to robust AURKA depletion (AURKA) | AURKA degradation potency upon cotreatment with tariquidar (in words) (AURKA; SK-N-BE(2)-C) | DC50 (AURKA; [3]) | DC50 (AURKA; HEK293T, read-out: AURKA DC50 24h) | DC50 (AURKA; RPE, read-out: AURKA DC50 24h) | DC50 (AURKA; SJNB-1, read-out: AURKA DC50 24h) | DC50 (AURKA; SK-N-AS, read-out: AURKA DC50 24h) | DC50 (AURKA; SK-N-SH, read-out: AURKA DC50 24h)
6 | – | 86 | – | 8,41 | 89% | – | 3.9 nM | – | – | – | O=C1CCC(N2C(=O)c3cccc(OCCOCCOCCOCCNC(=O)[C@]4(Cc5cccc(Nc6nccs6)n5)CC[C@@H](Oc5cccc(Cl)c5F)CC4)c3C2=O)C(=O)N1 (stereo partly drawn) [SK2188, reference compound] | – | – | – | – | – | – | – | –
7 | < 4.1 µL/min/1e6 cells | 88 | 92 | 8,09 | 90% | < 25 nM | 8.1 nM | – | single-digit nanomolar range | < 25 nM and 23 nM | Cc1cc(Nc2ccc(F)c(CC3(C(=O)N4CCC(CN5CCN(c6ccc(N7CCC(=O)NC7=O)cn6)CC5)CC4)CCN(Cc4cccc(Cl)c4F)CC3)n2)n[nH]1 [SK4454] | ≤ 1 h | significantly enhanced | 270 nM | – | – | – | – | –
